Where “and” joins values, the source holds several entries; their conditions need not be identical. Equal values may be shown once. Entries after “also recorded” stand apart in the source; their conditions may differ.
Experiments:
[1] = test system: healthy volunteers aged≥65 years; assay: Phase 1b Part B (MD) 10-day bed rest muscle atrophy study; assay type: in vivo, human
Experimental: In Part B, of the 30 subjects enrolled, all of which are ≥65 years of age. […] In the multi-dose cohorts (1A, 1B, 1C), PD parameters for effects on changes in insulin sensitivity and muscle indices during a period of bed rest are measured and evaluated to better inform decisions regarding choice of dose and direction of further development.
In each of the 3 cohorts in Part B, 30 total subjects are enrolled to receive treatment in either Cohort 1A, Cohort 1B, or Cohort 1C. Cohort 1A includes 10 subjects who all receive placebo NS over a 1 hour infusion for 10 days on Days 1 through Day 10. […] Patients are at bed rest for the entire 10-day duration of treatment.
Vital signs was collected daily and include diastolic and systolic blood pressure and pulse. On Days −1, 1, 5, and 10, vital signs was collected at the following timepoints: predose (additionally temperature and respiratory rate), 0.25 h, 0.5 h, 0.75 h, 1 h, 2 h, 3 h, 4 h, 6 h, 8 h, and 12 h after the start of study drug infusion. Vital signs will also be collected on Day 10 (23 h) and before discharge on Day 12. • D. Safety laboratory tests include complete blood count, clinical chemistries, and urinalysis. • E. Samples are to be collected in the morning. Subjects are to be fasting from 10:00 PM onward (min 8 hours fast) each night but may drink as much water as requested. • F. ECGs are to be taken predose and immediately following the completion of the 1-hour infusion. On Day 11, an ECG will also be taken again 23 h after the start of the Day 10 study drug infusion. • G. AEs was recorded from the start time of the first consumption of heavy water until the end of the subject's participation in the study. At discharge from the unit, any ongoing AEs was documented in source and in EDC was followed until the event is resolved or stabilized. […] On Days 1, 5, and 10, PK samples were collected at the following timepoints: predose, 0.25 h, 0.5 h, 0.75 h, 1 h, 2 h, 3 h, 4 h, 6 h, 8 h, and 12 h after the start of study drug infusion. Samples will also be collected 24 h (Day 11), 48 h (Day 12), 72 h (Day 13), and 96 h (Day 14) after the start of the last infusion. PK samples were taken from the opposite arm used for the IV infusion. • J. Continuous cardiac ECG telemetry monitoring was used starting on Day 1 pre-dose and continuing through the end of dosing on Day 10. • K. Subjects were asked to remain in their beds, apart from using a wheelchair to be taken to the shower and they will shower seated. They will also use a wheelchair to get to and from the bathroom. When not in bed, subjects were in a wheelchair. • L. Subjects will wear the pneumatic compression cuffs the entire duration of bed rest, except for when in a wheelchair to use the bathroom and shower. • M. Muscle circumference, cross-sectional area, color flow analysis, AP diameter, and echo density of the vastus lateralis and gastrocnemius were measured by ultrasound. Ultrasound imaging must be conducted by the same technician throughout the study for all subjects. […]

[2] = test system: aged mice; details: aged mice (24-month-old) vs age-matched controls, cited from earlier work
[3] = test system: healthy volunteers aged≥65 years; assay: Phase 1b Part B (MD) safety; assay type: in vivo, human
Experimental: The Safety Analysis Set is used for safety analysis. Subjects is analyzed based on the actual treatment received.
The double-blind, placebo-controlled clinical trial evaluated the safety and pharmacodynamics of BGE-105.

[4] = 14-day IV toxicity study in the rat; assay type: in vivo
Experimental: The updated exposure margins considering the highest maximum exposures in rats and dogs are calculated as follows: • Maximum exposure in the rat (male) was in the 14-day IV study and at the 300 mg/kg dose, the AUClast is 1070 μg*hr/mL. • Maximum exposure in dogs occurred at the 300 mg/kg dose in the 9-month oral toxicity study and the AUClast is 1310*μg·hr/mL.

[5] = test system: immobilized aged mice; details: immobilized aged mice (20-months-old), orally dosed, vs control vehicle; cited from earlier work
[6] = test system: immortalized muscle precursor cells from human patients; details: cited from earlier work
[7] = 10-day bed rest, BGE-105 240 mg daily (cohort MD 1B)
[8] = 10-day bed rest, BGE-105 240 mg daily (cohort MD 1B), vastus lateralis ultrasound
[9] = 10 days of bed rest, ultrasound
[10] = BGE-105 240 mg once daily IV for 10 days vs placebo

Compound: COc1cccc(OC)c1-n1c(NS(=O)(=O)[C@@H](C)[C@H](C)c2ncc(C)cn2)nnc1-c1cncc(C)c1 [BGE-105, (2S,3R)—N-(4-(2,6-dimethoxyphenyl)-5-(5-methyl-3-pyridinyl)-4H-1,2,4-triazol-3-yl)-3-(5-methyl-2-pyrimidinyl)-2-butanesulfonamide]
- Muscle grade (progression), % change: baseline to D10 [1, 7]: −9%
- Thigh circumference, % change: baseline to D10 [1, 7]: +0.8%
- Cumulative protein synthesis, % change: baseline to D10 ([1]; 10-day bed rest, BGE-105 240 mg daily (cohort MD 1B), biopsy): 22%
- AP diameter (thickness), % change: baseline to D10 [1, 8]: −8.0%
- Cross-sectional area (CSA), % change: baseline to D10 [1, 8]: −5.7%
- Muscle quality grade worsened (grade 1 to grade 2), number of volunteers ([1]; 10-day bed rest, ultrasound echo density, placebo 8 of 10): 1 of 11 and 1 out of 11 and (1 out of 11)
- Synthesis of myofibrillar structural proteins such as myosin and troponin ([1]; 10 days bed rest, D2O method and muscle biopsy): preserved compared to placebo
- Muscle protein synthesis, muscle microbiopsy of vastus lateralis ([1]; 10 days of bed rest, bed rest-induced decrease, vs placebo): significantly ameliorated; also recorded: elevated rate of muscle protein synthesis
- Improvement in thigh circumference relative to placebo ([1]; 10 days of bed rest, n=11): 100%
- Improvement in vastus lateralis cross-sectional area relative to placebo [1, 9]: 58%
- Improvement in vastus lateralis thickness relative to placebo [1, 9]: 73%
- Reduction in loss of vastus lateralis cross-sectional area [1, 10]: > 50%
- Reduction in loss of vastus lateralis muscle thickness [1, 10]: 75%
- Mean normalized fraction synthetic rate ([1]; BGE-105 treated patients with elevated rate, after 10 days of bed rest): 0.18-2.2
- Improvement in muscle dimension (muscle size by ultrasound) ([1]; Cohort 1B vs Cohort 1A): ~75%
- Physical activity, step ratio by wearable activity device ([1]; Day 10 through Day 60 (post-bedrest), vs placebo): increase in physical activity; also recorded: more pronounced in the BGE-105 group
- Reduction of the cross-sectional area of the Vastus Lateralis ([1]; after 10-day bed rest, mean percent change from baseline, placebo 19.47%): 8.041%
- Reduction of vastus lateralis diameter ([1]; after 10-day bed rest, mean percent change from baseline, placebo 21.18%): 5.664%
- Patients with elevated rate of muscle protein synthesis ([1]; after 10 days of bed rest, placebo 3 out of 10): 8 out of 11
- Patients with elevated rate of muscle protein synthesis ([1]; after 10 days of bed rest, placebo 30%): about 72.7%
- Increase in thigh circumference ([1]; after the 10-day bed rest period, placebo 6.438% reduction): 0.8%
- Echo density measurements, increase ([1]; treatment group (Cohort 1B, 240 mg daily), placebo 6.4% decrease): 0.8%
- Voluntary motor activity ([2]; p=0.00228): statistically significant increase in voluntary motor activity
- Grip strength ([2]; p=0.04): statistically significant improvement in grip strength
- Tolerability ([3]; Part B study): well tolerated
- Serious adverse effects ([3]; volunteers≥65 years old, 10 days of bed rest): no serious adverse effects
- NOAEL [4]: maximum dose tested
- Muscle atrophy [5]: significantly reduced muscle atrophy
- Cell growth and differentiation [6]: dose-dependent relationship between cell growth and differentiation, and concentration of BGE-105

From patent publication US20240366602A1, “COMBINATION THERAPY OF APELIN RECEPTOR AGONIST AND GLP-1 RECEPTOR AGONIST FOR TREATING A DISEASE OR CONDITION ASSOCIATED WITH WEIGHT GAIN” (BioAge Labs, Inc., priority 2023, published 2024)
